Test results from PubChem BioAssay (NCI).
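These data come from cells grown in 96-well plates and exposed to compound for 48 hours at five concentrations. GI50 is the concentration that inhibits growth by half. TGI denotes the concentration required for complete inhibition of growth.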

Columns and labels:
Test in all cases: NCI-60 cell line screen, 48 h
[1] = system: HS 578T breast
[2] = system: CAKI-1 renal
[3] = system: SK-MEL-5 melanoma
[4] = system: U251 CNS
[5] = system: SF-268 CNS
[6] = system: RPMI-8226 leukemia
[7] = system: HCC-2998 colon
[8] = system: HT29 colon
[9] = system: MDA-MB-231 breast
[10] = system: HOP-62 NSCLC

Compound: O=C1NC(=O)[C@@H](c2c[nH]c3ccccc23)[C@@H]1c1c[nH]c2ccccc12
- GI50 [1]: 24.8 µM
- TGI [1]: > 25 µM
- GI50 [2]: > 25 µM
- TGI [2]: > 25 µM
- GI50 [3]: > 25 µM
- TGI [3]: > 25 µM
- GI50 [4]: > 25 µM
- TGI [4]: > 25 µM
- GI50 [5]: > 25 µM
- TGI [5]: > 25 µM
- GI50 [6]: > 25 µM
- TGI [6]: > 25 µM
- GI50 [7]: > 25 µM
- TGI [7]: > 25 µM
- GI50 [8]: > 25 µM
- TGI [8]: > 25 µM
- GI50 [9]: > 25 µM
- TGI [9]: > 25 µM
- GI50 [10]: > 25 µM
- TGI [10]: > 25 µM

Compound: Nc1nccc2c1ccn2-c1cccc(NC(=O)c2ccc(N3CCOCC3)c(C(F)(F)F)c2)c1
- GI50 [1]: 0.34 µM
- TGI [1]: 2.43 µM
- GI50 [2]: 0.531 µM
- TGI [2]: > 19 µM
- GI50 [3]: 0.386 µM
- TGI [3]: 1.75 µM
- GI50 [4]: 0.664 µM
- TGI [4]: 9.35 µM
- GI50 [5]: 1.21 µM
- TGI [5]: > 46.7 µM
- GI50 [6]: 0.992 µM
- TGI [6]: 4.98 µM
- GI50 [7]: 1.63 µM
- TGI [7]: > 44.5 µM
- GI50 [8]: 0.32 µM
- TGI [8]: 1.45 µM
- GI50 [9]: 0.874 µM
- TGI [9]: 2.86 µM
- GI50 [10]: 1.27 µM
- TGI [10]: > 25.8 µM

Compound: COc1ccc2c(c1)[nH]c(=O)c1c3cc(OC)c(OC)cc3cn21
- GI50 [1]: < 0.01 µM
- TGI [1]: < 0.0231 µM
- GI50 [2]: < 0.01 µM
- TGI [2]: < 0.01 µM
- GI50 [3]: < 0.01 µM
- TGI [3]: 11.2 µM
- GI50 [4]: < 0.01 µM
- TGI [4]: 1.35 µM
- GI50 [5]: < 0.01 µM
- TGI [5]: 1.45 µM
- GI50 [6]: < 0.0134 µM
- GI50 [7]: < 0.01 µM
- TGI [7]: 0.0768 µM
- GI50 [8]: < 0.01 µM
- GI50 [9]: 0.0219 µM
- TGI [9]: 1.06 µM
- GI50 [10]: 0.0936 µM
- TGI [10]: 21 µM

Compound: C=C(C)[C@@H]1CC[C@]2(C(=O)O)CC[C@]3(C)[C@H](CC[C@@H]4[C@@]5(C)C/C(=C/c6cccc(I)c6)C(=O)C(C)(C)[C@@H]5CC[C@]43C)[C@@H]12
- GI50 [1]: 2.51 µM
- TGI [1]: 8.75 µM
- GI50 [2]: 2.22 µM
- TGI [2]: 10.7 µM
- GI50 [3]: 1.8 µM
- TGI [3]: 3.44 µM
- GI50 [4]: 1.71 µM
- TGI [4]: 3.91 µM
- GI50 [5]: 3.17 µM
- TGI [5]: 15.1 µM
- GI50 [6]: 2.07 µM
- TGI [6]: 7.06 µM
- GI50 [7]: 2.69 µM
- TGI [7]: 9.69 µM
- GI50 [8]: 2.9 µM
- TGI [8]: 9.76 µM
- GI50 [9]: 2.83 µM
- TGI [9]: 10 µM
- GI50 [10]: 3.24 µM
- TGI [10]: 12.6 µM

Compound: O=C(Oc1ccccc1Cl)c1ccccc1Nc1cccc(C(F)(F)F)c1
- GI50 [1]: 26.1 µM
- TGI [1]: 67.1 µM
- GI50 [2]: 20.7 µM
- TGI [2]: 49 µM
- GI50 [3]: 14.8 µM
- TGI [3]: 30.8 µM
- GI50 [4]: 23.6 µM
- TGI [4]: 58.2 µM
- GI50 [5]: 20.5 µM
- TGI [5]: 60.6 µM
- GI50 [6]: 18.4 µM
- TGI [6]: 54.2 µM
- GI50 [7]: 12.6 µM
- TGI [7]: 26.7 µM
- GI50 [8]: 30 µM
- TGI [8]: > 100 µM
- GI50 [9]: 20.2 µM
- TGI [9]: 48.3 µM
- GI50 [10]: 24.6 µM
- TGI [10]: 70.5 µM

Compound: O=C(c1nn(-c2ccc(Cl)cc2)cc1O)n1nc(C(F)(F)F)cc1-c1ccccc1
- GI50 [1]: 0.556 µM
- TGI [1]: > 100 µM
- GI50 [2]: 1.89 µM
- TGI [2]: > 36.8 µM
- GI50 [3]: 2.07 µM
- TGI [3]: 16.7 µM
- GI50 [4]: 2.65 µM
- TGI [4]: > 100 µM
- GI50 [5]: 1.8 µM
- TGI [5]: > 100 µM
- GI50 [6]: 1.91 µM
- TGI [6]: > 85.3 µM
- GI50 [7]: 9.4 µM
- TGI [7]: > 100 µM
- GI50 [8]: 4.07 µM
- TGI [8]: > 83.8 µM
- GI50 [9]: > 26.3 µM
- TGI [9]: > 100 µM
- GI50 [10]: 1.84 µM
- TGI [10]: > 76.9 µM

Compound: CCCCCCCCCCC[C@@H](C[C@H]1OC(=O)[C@H]1CCCCCC)OC(=O)[C@@H](CC(C)C)NC=O
- GI50 [1]: 3.81 µM
- TGI [1]: 40.8 µM
- GI50 [2]: 5.5 µM
- TGI [2]: > 100 µM
- GI50 [3]: 2.8 µM
- TGI [3]: 10.4 µM
- GI50 [4]: 2.83 µM
- TGI [4]: 17.2 µM
- GI50 [5]: 2.31 µM
- TGI [5]: 21.9 µM
- GI50 [6]: 0.855 µM
- TGI [6]: 8.81 µM
- GI50 [7]: 5.31 µM
- TGI [7]: 27.3 µM
- GI50 [8]: 3.18 µM
- TGI [8]: 35.6 µM
- GI50 [9]: 1.53 µM
- TGI [9]: 5.45 µM
- GI50 [10]: 4.14 µM
- TGI [10]: 29.5 µM

Compound: COc1ccc(C(=O)/C=C/c2cc(-c3ccc4c(c3)OCO4)n[nH]2)cc1OC
- GI50 [1]: 2.69 µM
- TGI [1]: 8.21 µM
- GI50 [2]: 1.9 µM
- TGI [2]: 4.33 µM
- GI50 [3]: 6.74 µM
- TGI [3]: 19.9 µM
- GI50 [4]: 1.58 µM
- TGI [4]: 5.37 µM
- GI50 [5]: 2.53 µM
- TGI [5]: 7.61 µM
- GI50 [6]: 1.03 µM
- TGI [6]: 5.24 µM
- GI50 [7]: 4.99 µM
- TGI [7]: 17.3 µM
- GI50 [8]: 2.98 µM
- TGI [8]: 11.3 µM
- GI50 [9]: 2.44 µM
- TGI [9]: 7.39 µM
- GI50 [10]: 2.08 µM
- TGI [10]: 5.6 µM

Compound: CC(C)=CC(=O)N[C@@H]1CC2CCC3C(CC[C@@]4(C)C3CC[C@@H]4C(C)N(C)C)[C@@]2(C)C[C@@H]1O (stereo partly drawn)
- GI50 [1]: 6.12 µM
- TGI [1]: 25.3 µM
- GI50 [2]: 5.96 µM
- TGI [2]: 23.9 µM
- GI50 [3]: 1.57 µM
- TGI [3]: 4.17 µM
- GI50 [4]: 3.97 µM
- TGI [4]: 22 µM
- GI50 [5]: 2.71 µM
- TGI [5]: 12.2 µM
- GI50 [6]: 2.51 µM
- TGI [6]: 18.5 µM
- GI50 [7]: 5.44 µM
- TGI [7]: 16.8 µM
- GI50 [8]: 0.496 µM
- TGI [8]: 2.92 µM
- GI50 [9]: 5.77 µM
- TGI [9]: 19.8 µM
- GI50 [10]: 4.3 µM
- TGI [10]: 9.85 µM
